Results published in ChEMBL document CHEMBL1201862, “PubChem BioAssay data set” (2004).
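Interpolation was linear, between the two tested concentrations surrounding the appropriate level; five concentrations were tested over 48 hours in 96-well plates. The concentration for 50% growth inhibition is given as GI50.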 Activity calls are given as the source filed them. Cut-off read from the data, not from the text of the source: active = GI50 up to about 1.1 µM and inactive = higher. Where a SMILES comes first, the peptide text is derived from it. [ ]: non-standard residue; d: D form. Phe(F5) = N[CH](Cc1c(F)c(F)c(F)c(F)c1F)C(=O)O

What was measured:
Assay in all cases: NCI tumour cell line growth inhibition, 48 h
[1] = tested on: SNB-75
[2] = tested on: OVCAR-3
[3] = tested on: SK-MEL-5
[4] = tested on: SR
[5] = tested on: COLO 205
[6] = tested on: KM-20L2
[7] = tested on: U-251
[8] = tested on: HCC 2998
[9] = tested on: HCT-15
[10] = tested on: A549
[11] = tested on: Hs-578T
[12] = tested on: SW-620
[13] = tested on: Malme-3M
[14] = tested on: MDA-MB-435
[15] = tested on: HCT-116
[16] = tested on: SF-539
[17] = tested on: MOLT-4
[18] = tested on: SF-295
[19] = tested on: HL-60
[20] = tested on: CAKI-1

Row | Structure (SMILES) | GI50 [1] | GI50 [2] | GI50 [3] | GI50 [4] | GI50 [5] | GI50 [6] | GI50 [7] | GI50 [8] | GI50 [9] | GI50 [10] | GI50 [11] | GI50 [12] | GI50 [13] | GI50 [14] | GI50 [15] | GI50 [16] | GI50 [17] | GI50 [18] | GI50 [19] | GI50 [20]
1 | CC(=O)O.CN1CCN(CN2C(=O)C3C4C=CC(C3C2=O)C2C3C(=O)N(CN5CCN(C)CC5)C(=O)C3C42)CC1 (configuration not stated) | 23.3 µM (inactive) | 24.3 µM (inactive) | 23.4 µM (inactive) | 13.4 µM (inactive) | 19 µM (inactive) | 20.3 µM (inactive) | 19 µM (inactive) | 22.2 µM (inactive) | 18.9 µM | 22 µM (inactive) | > 100 µM (inactive) | 22.2 µM (inactive) | 18.3 µM (inactive) | 17.1 µM (inactive) | 16.6 µM (inactive) | 21.1 µM (inactive) | 20.2 µM (inactive) | – | – | –
2 | CN(c1ccccc1)C(c1ccccc1)C(O)c1ccccc1 (configuration not stated) | 24.1 µM (inactive) | 17.3 µM (inactive) | 19.4 µM (inactive) | 20.6 µM (inactive) | 16.3 µM (inactive) | 19.4 µM (inactive) | 17.9 µM (inactive) | 22.9 µM (inactive) | 21.7 µM | 18.6 µM (inactive) | – | 18.4 µM (inactive) | 16.3 µM (inactive) | – | 18.6 µM (inactive) | 22.1 µM (inactive) | 12.8 µM (inactive) | 15.8 µM (inactive) | 15.5 µM (inactive) | 20.5 µM (inactive)
3 | CCOC(=O)C(C)(NC(=O)c1ccc(NCc2ccc3nc(NC(=O)c4ccccc4)nc(NC(=O)c4ccccc4)c3c2)cc1)C(=O)OCC | 3.4 µM (inactive) | 5.64 µM (inactive) | 7.28 µM (inactive) | 34.9 µM (inactive) | 40.4 µM (inactive) | 18.4 µM (inactive) | 7.11 µM (inactive) | 25.8 µM (inactive) | 24.4 µM | 12.2 µM (inactive) | – | 11.7 µM (inactive) | 15 µM (inactive) | – | 6.97 µM (inactive) | 3.51 µM (inactive) | 26.6 µM (inactive) | 6.79 µM (inactive) | > 100 µM (inactive) | 8.02 µM (inactive)
4 | COC(=O)C(=O)C(C(=O)OC)C(=O)C(=O)Nc1c(C)cccc1C (configuration not stated) | > 100 µM (inactive) | > 100 µM (inactive) | > 100 µM (inactive) | > 100 µM (inactive) | > 100 µM (inactive) | > 100 µM (inactive) | > 100 µM (inactive) | > 100 µM (inactive) | > 100 µM | > 100 µM (inactive) | – | > 100 µM (inactive) | > 100 µM (inactive) | – | > 100 µM (inactive) | > 100 µM (inactive) | > 100 µM (inactive) | > 100 µM (inactive) | > 100 µM (inactive) | > 100 µM (inactive)
5 | CCN(CC)CCNc1c2ccccc2nc2cccc([N+](=O)[O-])c12 | 0.0176 µM (active) | 0.0123 µM (active) | 0.00902 µM (active) | 0.00434 µM (active) | 0.00461 µM (active) | 0.0303 µM (active) | 0.0123 µM (active) | 0.0151 µM (active) | 0.00701 µM | 0.00826 µM (active) | 0.017 µM (active) | 0.0116 µM (active) | 0.00953 µM (active) | 0.00164 µM (active) | 0.00676 µM (active) | 0.0224 µM (active) | 0.0117 µM (active) | 0.00912 µM (active) | 0.046 µM (active) | 0.0158 µM (active)
6 | O=C(CNc1ccc2c(=S)c3ccccc3[nH]c2c1)Nc1ccccc1-c1ccccc1NC(=O)CNc1ccc2c(=S)c3ccccc3[nH]c2c1 | 26.5 µM (inactive) | 24.8 µM (inactive) | 15.2 µM (inactive) | 6.01 µM (inactive) | 11.9 µM (inactive) | 19.7 µM (inactive) | 19.6 µM (inactive) | 15.1 µM (inactive) | 19.4 µM | 24.3 µM (inactive) | 29.2 µM (inactive) | 18.4 µM (inactive) | 15.7 µM (inactive) | 24 µM (inactive) | 18.5 µM (inactive) | 24.7 µM (inactive) | 3.96 µM (inactive) | 21.2 µM (inactive) | 2.99 µM (inactive) | 30.1 µM (inactive)
7 | COC(=O)C(CC(C)C)NC(=O)C(Cc1c[nH]cn1)NC(=O)CNC(=O)C(NC(=O)C(C)NC(=O)C(Cc1c[nH]c2ccccc12)NC(=O)C(CCC(=O)O)NC(=O)C(N)Cc1c(F)c(F)c(F)c(F)c1F)C(C)C (configuration not stated) (H-[Phe(F5)]EWAVGHL-OMe; configuration not given here) | > 100 µM (inactive) | > 12.5 µM (inactive) | > 12.5 µM (inactive) | > 12.5 µM (inactive) | > 12.5 µM (inactive) | > 100 µM (inactive) | > 12.5 µM (inactive) | > 12.5 µM (inactive) | > 12.5 µM | > 12.5 µM (inactive) | > 12.5 µM (inactive) | > 12.5 µM (inactive) | > 12.5 µM (inactive) | > 12.5 µM (inactive) | > 12.5 µM (inactive) | > 12.5 µM (inactive) | > 12.5 µM (inactive) | > 12.5 µM (inactive) | > 12.5 µM (inactive) | > 12.5 µM (inactive)
8 | CC(=O)Oc1ccc(C(c2ccc(OC(C)=O)cc2)c2ccccn2)cc1 [BISACODYL] | 28.5 µM (inactive) | 0.219 µM (active) | 68.4 µM (inactive) | 64.4 µM (inactive) | 0.406 µM (active) | 54.2 µM (inactive) | > 97.5 µM (inactive) | 2.9 µM (inactive) | 39.7 µM | 91.4 µM (inactive) | 0.232 µM (active) | > 100 µM (inactive) | 78.5 µM (inactive) | 76.4 µM (inactive) | 70.6 µM (inactive) | > 91.2 µM (inactive) | 57 µM (inactive) | 64.3 µM (inactive) | 36.2 µM (inactive) | > 100 µM (inactive)
9 | NCCCC(N)(C(=O)O)C(F)F (configuration not stated) [EFLORNITHINE] | 2340 µM (inactive) | > 3940 µM (inactive) | > 5000 µM (inactive) | > 100 µM (inactive) | > 5000 µM (inactive) | > 5000 µM (inactive) | > 5000 µM (inactive) | > 5000 µM (inactive) | 769 µM | > 5000 µM (inactive) | – | > 5000 µM (inactive) | > 5000 µM (inactive) | – | 815 µM (inactive) | > 5000 µM (inactive) | 3030 µM (inactive) | 2270 µM (inactive) | > 3910 µM (inactive) | 1570 µM (inactive)
10 | O=CN/C=C/c1cc(O)ccc1O [ERBSTATIN] | 62.4 µM (inactive) | 9.35 µM (inactive) | 18.7 µM (inactive) | 4.39 µM (inactive) | 11.9 µM (inactive) | 52.2 µM (inactive) | 42.3 µM (inactive) | > 100 µM (inactive) | 13.3 µM | > 65.6 µM (inactive) | – | 8.75 µM (inactive) | 17.9 µM (inactive) | – | 15.7 µM (inactive) | 22.7 µM (inactive) | 22.9 µM (inactive) | 58.1 µM (inactive) | 5.14 µM (inactive) | 12.4 µM (inactive)
